PubChem BioAssay AID1963952 (Xavier Lab, Infectious Disease and Microbiome Program, …, 2024)
The source made the active and inactive calls. No rule for the calls is given here.

biological target: Peptidyl-prolyl cis-trans isomerase FKBP1A (Homo sapiens) (UniProt P62942); test: FKBP12 binders, dose response, biochemical, TR-FRET (AID 1963952); details: FKBP12 binding
Sequence (P62942 whole entry, looked up): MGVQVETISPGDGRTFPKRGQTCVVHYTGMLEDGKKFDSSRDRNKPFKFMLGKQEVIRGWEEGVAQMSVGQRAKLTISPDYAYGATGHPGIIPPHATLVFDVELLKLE

SMILES | EC50 | outcome
CCC(C)(C)C(=O)C(=O)N1CCCC[C@H]1C(=O)O[C@H](CCc1ccccc1)C(=O)N1[C@@H]2CC[C@H]1CC(Nc1nc(NCCc3sc(N)nc3C)nc(N3CCn4ncnc4C3)n1)C2 (stereo not given in full) | 17.1 µM | –
CCC(C)(C)C(=O)C(=O)N1CCCC[C@H]1C(=O)N[C@H](CCc1ccc(OC)cc1)C(=O)N1[C@@H]2CC[C@H]1CC(Nc1nc(NCCc3sc(N)nc3C)nc(N(C)Cc3nnc4n3CCC4)n1)C2 (stereo not given in full) | 17.9 µM | –
CC(=O)N1[C@@H]2CC[C@H]1CC(Nc1nc(NCCc3sc(N)nc3C)nc(N3CCn4ncnc4C3)n1)C2 (stereo not given in full) | – | inactive
CCC(C)(C)C(=O)C(=O)N1CCCC[C@H]1C(=O)N[C@H](CCc1ccc(OC)cc1)C(=O)N1[C@@H]2CC[C@H]1CC(Nc1nc(NCCc3sc(N)nc3C)nc(NCCn3cnc4ccccc43)n1)C2 (stereo not given in full) | 18.4 µM | –
CCC(C)(C)C(=O)C(=O)N1CCCC[C@H]1C(=O)N[C@H](CCc1ccc(OC)cc1)C(=O)N1[C@@H]2CC[C@H]1CC(Nc1nc(NCCc3sc(N)nc3C)nc(NCc3ccnc(CO)c3)n1)C2 (stereo not given in full) | 36.8 µM | –
CCC(C)(C)C(=O)C(=O)N1CCCC[C@H]1C(=O)N[C@H](CCc1ccc(OC)cc1)C(=O)N1CC[C@H](Nc2nc(NCCc3sc(N)nc3C)nc(N(C)Cc3nnc4n3CCC4)n2)C1 | 13.3 µM | –
CCC(C)(C)C(=O)C(=O)N1CCCC[C@H]1C(=O)N[C@H](CCc1ccc(OC)cc1)C(=O)N1[C@@H]2CC[C@H]1CC(NC(C)=O)C2 (stereo not given in full) | 28.9 µM | –
CCC(C)(C)C(=O)C(=O)N1CCCC[C@H]1C(=O)N[C@H](CCc1ccc(OC)cc1)C(=O)N1[C@@H]2CC[C@H]1CC(Nc1nc(NCCc3sc(N)nc3C)nc(N3CCn4ncnc4C3)n1)C2 (stereo not given in full) | 29.5 µM | –
CCC(C)(C)C(=O)C(=O)N1CCCC[C@H]1C(=O)N[C@H](CCc1ccc(OC)cc1)C(=O)N1CC(Nc2nc(NCCc3sc(N)nc3C)nc(NCCn3cnc4ccccc43)n2)C1 | 35 µM | –
CCC(C)(C)C(=O)C(=O)N1CCCC[C@H]1C(=O)N[C@H](CCc1ccc(OC)cc1)C(=O)N1[C@@H]2CC[C@H]1CC(Nc1nc(NCCc3ccccc3)nc(N3CCn4ncnc4C3)n1)C2 (stereo not given in full) | 36 µM | –
